Patent US20020137891A1, “Protein scaffold and its use to multimerise monomeric polypeptides” (priority 1999, published 2002)

Legend:
bacteriophage λ (b2cI) = test: Growth (plaque formation) of bacteriophage λ at 30° C. in transformed wild-type and groEL mutant strains; type: cell-based, E. coli
From the text: Bacterial and bacteriophage strains. The E. coli strains used in this study were: C41(DE3), a mutant of BL21(DE3) capable of expressing toxic genes (Miroux, B. & Walker, J. E. (1996) J. Mol. Biol. 260, 289-298); SV2 (B178groEL44), SV3 (B178groEL59) and SV6 (B178groEL673): isogenic strains carrying temperature-sensitive alleles of groEL; SV1(=B178) (Georgopoulos, C., Hendrix, R. W., Casjens, S. R. & Kaiser, A. D. (1973) J. Mol. Biol. 76, 45-60), AI90 (ΔgroEL::kan^R) [pBAD-EL] (Ivic, A., Olden, D., Wallington, E. J. & Lund, P. A. (1997) Gene 194, 1-8), and TG1 (Gibson, T. J. (1984) Ph.D. thesis, University of Cambridge, U.K). Bacteriophage λb2cI (Zeilstra-Ryalls, J., Fayet, O., Baird, L. & Georgopoulos, C. (1993) J. Bacteriol. 175, 1134-1143) was used according to standard methods (Arber, W., Enquist, L., Hohn, B., Murray, N. E. & Murray, K. (1983) in Lambda II., ed. R. W. Hendrix, J. W. r., F. W. Stahl and R. A. Weisberg (Cold Spring Harbor Laboratory, Cold Spring Harbor, N.Y.), pp. 433-466); plaque formation was assayed at 30° C. T4D0, a derivative of bacteriophage T4 (Zeilstra-Ryalls, J., Fayet, O., Baird, L. & Georgopoulos, C. (1993) J. Bacteriol. 175, 1134-1143), was used according to standard methods (Karam, J. D. (1994) Molecular biology of bacteriophage T4. (American Society for Microbiology, Washington, D.C.)); plaque formation was assayed at 37° C.
Bacteriophage λ requires the chaperonins GroES and GroEL for protein folding during morphogenesis; bacteriophage T4 requires GroEL and Gp31, the latter being encoded by the bacteriophage genome (Zeilstra-Ryalls, J., Fayet, O. & Georgopoulos, C. (1991) Annu. Rev. Microbiol. 45, 301-325). Nine groE alleles which fail to support λ growth have been sequenced (Zeilstra-Ryalls, J., Fayet, O., Baird, L. & Georgopoulos, C. (1993) J. Bacteriol. 175, 1134-1143). We examined the ability of MC7, over-expressed from the constitutive tet promoter on a high-copy number vector (see FIG. 2), to complement three mutant groEL alleles for plaque formation by λ (b2cI) at 30° C. (Table 3) and T4 at 37° C. (Table 4).

GroES = GroES (Escherichia coli, UniProt P0A6F9); conditions: read-out: apparent dissociation constant for the formation of the GroEL-GroES complex; cited from earlier work
Chain of GroES (P0A6F9 whole entry): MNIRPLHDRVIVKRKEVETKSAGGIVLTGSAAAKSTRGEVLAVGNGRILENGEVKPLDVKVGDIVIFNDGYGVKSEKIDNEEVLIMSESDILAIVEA

[1] = molecular target: T1, pig heart mitochondrial malate dehydrogenase (mtMDH) (Sus scrofa, UniProt P00346); test: In vitro refolding and aggregation protection of heat- and dithiothreitol-denatured mtMDH; type: biochemical
T1 construct: pig heart mitochondrial malate dehydrogenase (mtMDH; Boehringer-Mannheim); purchased Boehringer-Mannheim; host or cells: pig heart
T1 sequence (P00346 25-338): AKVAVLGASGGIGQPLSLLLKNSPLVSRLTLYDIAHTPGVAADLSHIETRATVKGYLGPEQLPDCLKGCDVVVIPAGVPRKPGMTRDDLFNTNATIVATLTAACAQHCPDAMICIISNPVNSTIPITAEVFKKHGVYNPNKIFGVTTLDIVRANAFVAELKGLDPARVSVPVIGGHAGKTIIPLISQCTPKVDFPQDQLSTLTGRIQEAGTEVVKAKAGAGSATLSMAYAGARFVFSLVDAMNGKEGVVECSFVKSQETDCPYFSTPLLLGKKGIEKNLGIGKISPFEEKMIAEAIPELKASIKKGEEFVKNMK
Protocol: In vitro refolding experiments. Refolding assays of pig heart mitochondrial malate dehydrogenase (mtMDH; Boehringer-Mannheim) and aggregation protection were carried out essentially as described (Peres Ben-Zvi, A. P., Chatellier, J., Fersht, A. R. & Goloubinoff, P. (1998) Proc. Natl. Acad. Sci. U.S.A. 95, 15275-15280). The concentrations of MC7 used were between 8-16 μM (reporter to protomer).

[2] = system: AI90 (ΔgroEL::kan^R) [pBADEL] E. coli strain; test: Plating ability of transformed AI90 (ΔgroEL::kan^R) [pBAD-EL] at 37° C. on depletion of GroEL; type: cell-based
Protocol: AI90 (ΔgroEL::kan^R) [pBAD-EL] cells were transformed with the pJC vector series. Transformants were selected at 37° C. on LB supplemented with 50 μg.ml^−1 of kanamycin, 120 μg.mL^−1 of ampicillin, 25 μg.mL^1 of chloramphenicol and 0.2% L(+)arabinose. Depletion of GroEL protein was analysed at 37° C. by plating the same quantity of AI90 [pBAD-EL+pJC vectors] cells on LB plates containing 1% D(+)glucose or various amount of arabinose.
Each experiment was performed in triplicate. Plasmids carrying no groE genes or encoding the GroE proteins were used as negative or positive controls, respectively.

SV2 [pBADGroES] = conditions: SV2 over-expressing GroES from pBAD

## GroEL (1-548): E. coli molecular chaperone, 14 subunits of 57.5 kD in two seven membered rings [reference compound]
Bacteriophage λ (b2cI)
  Complementation of groEL mutant strains for bacteriophage λ growth (in words): weak complementation of λ growth in SV2 (groEL44) and SV3 (groEL59; Ser201→Phe)
  Effect of over-expression on plaque formation by bacteriophage λ in SV1 (groE^+) (in words): suffices to inhibit λ growth
Bacteriophage λ (b2cI); pJC plasmid
  Growth of bacteriophage λ, SV1 (groEL^+): − (no visible plaques (<10^−4))
  Growth of bacteriophage λ, SV2 groEL44: + (10-fold fewer plaques, or plaque size reduced relative to wild-type groEL^+ strain, or both)
  Growth of bacteriophage λ, SV3 GroEL59: ++ (5-fold fewer plaques relative to wild-type groEL^+ strain, or both)
  Growth of bacteriophage λ, SV6 groEL673: +/− (10^2-fold fewer plaques and plaque size reduced relative to wild-type groEL^+ strain)
GroES
  Kd: 1 µM
[1]; after 120 min, FIG. 7c
  yield of refolded mtMDH: 6 nM
[1]; reactivation at 25° C., chaperone alone, FIG. 7b
  rate of refolding of denatured mtMDH: 0.04 nM/min
[2]; 0.00 % L(+)arabinose
  Plating ability: +++ (growth identical to that in presence of 0.2% L(+)arabinose (100%), in terms of both number and size)
[2]; 0.01 % L(+)arabinose
  Plating ability: +++ (growth identical to that in presence of 0.2% L(+)arabinose (100%), in terms of both number and size)
[2]; 0.10 % L(+)arabinose
  Plating ability: +++ (growth identical to that in presence of 0.2% L(+)arabinose (100%), in terms of both number and size)
[2]; 0.15 % L(+)arabinose
  Plating ability: +++ (growth identical to that in presence of 0.2% L(+)arabinose (100%), in terms of both number and size)
SV2 [pBADGroES]
  Plaque size and number: do not completely eliminate them
